Consider 13 compounds from ChEMBL document CHEMBL4350953, “Inhibitor of Apoptosis Protein (IAP) Antagonists in Anticancer Agent Discovery: Current Status and Perspectives” (J Med Chem, 2019).

Assay [1] concerns the target T1, E3 ubiquitin-protein ligase XIAP (Homo sapiens, UniProt P98170). Nature of the assay: Binding affinity to XIAP-BIR3 domain (241 to 356 residues) (unknown origin) by fluorescence polarization-based competition assay.
Assay [2] concerns the target T2, Caspase-9 (Homo sapiens, UniProt P55211).
T2 sequence (P55211 whole entry): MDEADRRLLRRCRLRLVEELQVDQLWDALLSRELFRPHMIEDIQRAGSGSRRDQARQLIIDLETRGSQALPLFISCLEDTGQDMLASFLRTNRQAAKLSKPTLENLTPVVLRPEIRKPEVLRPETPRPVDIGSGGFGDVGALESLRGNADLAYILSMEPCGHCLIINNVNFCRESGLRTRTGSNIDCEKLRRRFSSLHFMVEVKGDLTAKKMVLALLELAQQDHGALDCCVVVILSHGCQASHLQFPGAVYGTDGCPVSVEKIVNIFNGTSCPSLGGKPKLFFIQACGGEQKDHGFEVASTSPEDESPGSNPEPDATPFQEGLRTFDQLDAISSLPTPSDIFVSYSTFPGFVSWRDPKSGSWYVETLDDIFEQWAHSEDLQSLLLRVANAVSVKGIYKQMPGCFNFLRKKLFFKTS
Nature of the assay: Inhibition of N-terminal CARD domain of caspase 9 (unknown origin).

The subject of assay [3] is MDA-MB-231. Nature of the assay: Cytotoxicity against human MDA-MB-231 cells assessed as reduction in cell viability.
The test system of assay [4] is MDA-MB-231. The assay is described as follows: Growth inhibition of human MDA-MB-231 cells. Type of assay: functional.
For assay [5], the target named is T3, Baculoviral IAP repeat-containing protein 2 (Homo sapiens, UniProt Q13490). The assay is described as follows: Binding affinity to cIAP1-BIR3 domain (unknown origin).
T3 sequence (Q13490 whole entry, the tested form may be a part): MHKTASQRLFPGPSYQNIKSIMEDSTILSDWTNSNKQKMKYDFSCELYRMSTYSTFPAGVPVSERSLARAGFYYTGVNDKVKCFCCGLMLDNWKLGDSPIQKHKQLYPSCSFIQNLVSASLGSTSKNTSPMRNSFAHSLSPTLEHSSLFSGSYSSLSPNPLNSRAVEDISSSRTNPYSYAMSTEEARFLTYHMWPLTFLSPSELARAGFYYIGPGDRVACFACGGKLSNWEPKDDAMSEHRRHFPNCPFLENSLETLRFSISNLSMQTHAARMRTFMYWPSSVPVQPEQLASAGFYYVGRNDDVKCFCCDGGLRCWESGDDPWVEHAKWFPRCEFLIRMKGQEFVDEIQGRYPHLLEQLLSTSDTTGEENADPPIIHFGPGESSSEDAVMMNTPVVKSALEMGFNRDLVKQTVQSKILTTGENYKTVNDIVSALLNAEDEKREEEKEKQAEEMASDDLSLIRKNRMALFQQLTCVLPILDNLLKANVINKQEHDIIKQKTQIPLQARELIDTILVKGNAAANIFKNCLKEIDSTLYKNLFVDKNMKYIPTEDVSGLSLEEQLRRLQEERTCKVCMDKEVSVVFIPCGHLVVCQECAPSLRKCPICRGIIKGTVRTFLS
Assay [6] deals with T3, Baculoviral IAP repeat-containing protein 2. Nature of the assay: Induction of cIAP1 (unknown origin) degradation.
Assay [7] concerns HL-60. Nature of the assay: Cytotoxicity against human HL60 cells assessed as reduction in cell viability. Type of assay: functional, cell-based.
Assay [8] concerns the target T1, E3 ubiquitin-protein ligase XIAP. Nature of the assay: Binding affinity to XIAP-BIR2/BIR3 domain (unknown origin).
Assay [9] deals with Baculoviral IAP repeat-containing protein 3 (Homo sapiens, UniProt Q13489). The assay is described as follows: Binding affinity to cIAP2-BIR3 domain (unknown origin).
Sequence of Baculoviral IAP repeat-containing protein 3 (Q13489 whole entry, the tested form may be a part): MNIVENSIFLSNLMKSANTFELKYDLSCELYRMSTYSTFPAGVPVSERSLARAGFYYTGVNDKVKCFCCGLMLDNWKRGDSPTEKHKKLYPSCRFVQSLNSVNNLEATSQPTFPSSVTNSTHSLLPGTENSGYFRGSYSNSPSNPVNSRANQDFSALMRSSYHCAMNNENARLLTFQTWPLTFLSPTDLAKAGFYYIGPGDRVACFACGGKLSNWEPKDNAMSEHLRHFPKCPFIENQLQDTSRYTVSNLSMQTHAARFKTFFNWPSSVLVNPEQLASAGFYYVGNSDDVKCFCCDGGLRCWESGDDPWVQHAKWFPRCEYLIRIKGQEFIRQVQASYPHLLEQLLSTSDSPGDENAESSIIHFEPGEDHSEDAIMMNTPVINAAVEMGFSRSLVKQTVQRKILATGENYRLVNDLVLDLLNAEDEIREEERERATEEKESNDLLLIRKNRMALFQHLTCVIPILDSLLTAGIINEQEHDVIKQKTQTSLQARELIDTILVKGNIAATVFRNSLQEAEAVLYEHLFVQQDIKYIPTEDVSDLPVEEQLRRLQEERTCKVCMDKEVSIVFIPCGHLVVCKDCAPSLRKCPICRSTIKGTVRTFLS
Assay [10] has as its target T1, E3 ubiquitin-protein ligase XIAP. The assay is described as follows: Binding affinity to XIAP-BIR2 domain (unknown origin) by fluorescence polarization-based competition assay. Background: Polarisation of emitted light reports the rotation of a fluorescent probe.

Molecules are shown by their SMILES.

T1 sequence (P98170 whole entry, the tested form may be a part): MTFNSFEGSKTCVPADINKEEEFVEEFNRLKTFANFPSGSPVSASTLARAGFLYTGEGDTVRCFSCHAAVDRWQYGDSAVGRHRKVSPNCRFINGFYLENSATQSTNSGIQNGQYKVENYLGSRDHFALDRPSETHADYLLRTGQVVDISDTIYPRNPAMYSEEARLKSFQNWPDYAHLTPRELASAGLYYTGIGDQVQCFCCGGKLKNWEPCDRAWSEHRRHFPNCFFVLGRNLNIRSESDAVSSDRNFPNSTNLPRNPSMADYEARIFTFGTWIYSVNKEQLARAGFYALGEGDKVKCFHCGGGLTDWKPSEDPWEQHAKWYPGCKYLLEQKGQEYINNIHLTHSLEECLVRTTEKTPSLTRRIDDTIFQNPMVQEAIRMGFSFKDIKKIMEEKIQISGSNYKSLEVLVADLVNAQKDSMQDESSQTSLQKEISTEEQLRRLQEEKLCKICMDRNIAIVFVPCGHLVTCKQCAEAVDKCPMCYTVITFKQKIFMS

As a reminder, the Kd is the concentration at which binding is half-saturated. Lower therefore signals a tighter complex. In turn, `CN[C@@H](C)C(=O)N[C@H](C(=O)N1CCC[C@H]1C(=O)N[C@H]1CCc2ccccc21)C(C)(C)C` returned a Kd in assay [1] of 29 nM.

By EC50 is commonly meant the concentration that produces a half-maximal response. A word on the IC50: it is the concentration needed to halve the response being measured. `CN[C@@H](C)C(=O)N[C@H](C(=O)N1CCC[C@H]1C(=O)N[C@H]1CCCc2ccccc21)C(C)(C)C`: in [2], the concentration for a half-maximal effect (EC50) came to 290 nM. In addition, in [3], the IC50 was found to be 68 nM.

By GI50 is commonly meant the concentration giving 50% growth inhibition. A high value points to lower sensitivity of the cells. Consider `CN[C@@H](C)C(=O)N[C@H](C(=O)N1CCC[C@H]1C(=O)N[C@H]1c2ccccc2C[C@H]1OCC#CC#CCO[C@@H]1Cc2ccccc2[C@@H]1NC(=O)[C@@H]1CCCN1C(=O)[C@@H](NC(=O)[C@H](C)NC)C(C)(C)C)C(C)(C)C`, for which the GI50 in assay [4] is less than 0.06 nM. This compound registered a half-inhibitory concentration (IC50) in [5] of 15 nM. In addition, a half-maximal effect in [6] (EC50) was put at 0.1 nM.

`CN[C@@H](C)C(=O)N[C@@H](CNC(=O)c1ccc(S(=O)(=O)F)cc1)C(=O)N1CCC[C@@H]1c1cncc(Cc2ccc(F)cc2)n1` showed a 50% inhibitory concentration (IC50) in assay [5] of more than 200 nM.

`CN[C@@H](C)C(=O)N[C@H](C(=O)N1CCC[C@H]1C(=O)N[C@H]1CCCc2ccccc21)C1CCCCC1`: in assay [2], the EC50 turned out to be 310 nM. Also, in assay [3], the IC50 was determined as 13 nM.

With `CC[C@H](NC)C(=O)N[C@H](C(=O)N1C[C@H]2Cc3cc(Cl)ccc3N2C[C@H]1C(=O)N[C@H]1CCOc2ccccc21)C1CCCCC1`, the concentration for 50% growth inhibition (GI50) in assay [4] amounted to 15 nM.

`CN[C@@H](C)C(=O)N[C@H](C(=O)N1CC[C@@H](Oc2ccccc2)[C@H]1C(=O)N[C@H]1CCCc2ccccc21)C(C)(C)C` returned a concentration for a half-maximal effect (EC50) in [2] of 240 nM.

As to `CCO[C@@H]1C[C@@H]2CN(C(=O)[C@@H](NC(=O)[C@H](C)NC)C3CCC(F)(F)CC3)[C@H](C(=O)N[C@H]3CCOc4ccccc43)CN2C1`, growth in assay [4] was halved (GI50) at 1.8 nM. The compound further registered a Kd in [5] of 1.3 nM.

For the compound `CN[C@@H](C)C(=O)NC1CCCC[C@H]2CC[C@@H](C(=O)N[C@@H](c3ccccc3)c3cn(CCCCc4ccc(CCCCn5cc([C@@H](NC(=O)[C@@H]6CC[C@@H]7CCCC[C@H](NC(=O)[C@H](C)NC)C(=O)N76)c6ccccc6)nn5)cc4)nn3)N2C1=O` (stereo not given in full), the 50% inhibitory concentration (IC50) in assay [7] is 1 nM.

On to `CN[C@@H](C)C(=O)N[C@H]1CCCC[C@H]2CC[C@@H](C(=O)N[C@@H](c3ccccc3)c3cn(Cc4ccccc4)nn3)N2C1=O`, for which the IC50 is 376 nM in assay [8] and 2000 nM in assay [7].

For `CN[C@@H](C)C(=O)N[C@H]1CCCC[C@H]2CC[C@@H](C(=O)NC(c3ccccc3)c3ccccc3)N2C1=O`, the IC50 in [7] was 1400 nM.

With `CC[C@H](NC(=O)[C@H](C)NC)C(=O)N1C[C@@H](O)C[C@H]1Cc1c(-c2[nH]c3cc(F)ccc3c2C[C@@H]2C[C@H](O)CN2C(=O)[C@H](CC)NC(=O)[C@H](C)NC)[nH]c2cc(F)ccc12` [BIRINAPANT], in [9], the equilibrium dissociation constant (Kd) was 36 nM.

For the compound `CN[C@@H](C)C(=O)N[C@H](C(=O)N1CCC[C@H]1C(=O)Nc1snnc1-c1ccccc1)C1CCCCC1` [GDC-0152], the Kd was found to be 28 nM in assay [1] and 112 nM in assay [10].
